Measurements reported in ChEMBL document CHEMBL1128000, “Synthesis and antiviral activity of a novel class of HIV-1 protease inhibitors containing a heterocyclic P1-P2 amide bond isostere” (Bioorg Med Chem Lett, 1994).
pIC50, pKi: −log10 of the molar value.

Tests used:
[1] = biological target: Human immunodeficiency virus type 1 protease (Human immunodeficiency virus 1, UniProt Q72874); assay: Inhibitory activity against HIV-1 protease; settings: read-out: Ki app
[2] = tested on: MOLT-4; assay: Compound was tested for in vitro inhibitory activity against HIV replication in MOLT-4 cells; type: functional, cell-based; settings: Homo sapiens

Structure (SMILES)	pKi [1]	pIC50 [2]
CC(C)c1c[nH]c([C@H](Cc2ccccc2)C[C@H](O)[C@H](Cc2ccccc2)NC(=O)[C@@H](NC=O)C(C)C)n1	8.34	–
CCC(CC)C(=O)c1cnc([C@H](Cc2ccccc2)C[C@H](O)[C@H](Cc2ccccc2)NC(=O)OC(C)(C)C)[nH]1	7.34	6.07
CCC(C)C(=O)c1c[nH]c([C@H](Cc2ccccc2)C[C@H](O)[C@H](Cc2ccccc2)NC(=O)OC(C)(C)C)n1 (some centres not stated)	7.28	6.02
CC(C)(C)OC(=O)N[C@@H](Cc1ccccc1)[C@@H](O)C[C@@H](Cc1ccccc1)c1nccs1	5.52	–
CC(C)(C)OC(=O)N[C@@H](Cc1ccccc1)[C@@H](O)C[C@@H](Cc1ccccc1)c1nc[nH]n1	5.24	–
CCCCc1cnc([C@H](Cc2ccccc2)C[C@H](O)[C@H](Cc2ccccc2)NC(=O)OC(C)(C)C)s1	4.59	–
CCCc1cnc([C@H](Cc2ccccc2)C[C@H](O)[C@H](Cc2ccccc2)NC(=O)OC(C)(C)C)s1 (stereo in doubt; form 3)	5.34	–
CC(=O)N[C@@H](C(=O)N[C@@H](Cc1ccccc1)[C@@H](O)C[C@@H](Cc1ccccc1)c1nc(C(C)C)c[nH]1)C(C)C	6.82	–
COC(=O)N[C@H](C(=O)N[C@@H](Cc1ccccc1)[C@@H](O)C[C@@H](Cc1ccccc1)c1nc(C(C)C)c[nH]1)C(C)C	8.68	7.30
CCOC(=O)N[C@H](C(=O)N[C@@H](Cc1ccccc1)[C@@H](O)C[C@@H](Cc1ccccc1)c1nc(C(C)C)c[nH]1)C(C)C	8.55	7.11
CCCc1cnc([C@H](Cc2ccccc2)C[C@H](O)[C@H](Cc2ccccc2)NC(=O)OC(C)(C)C)s1 (stereo in doubt; form 1)	6.15	–
CC(C)c1c[nH]c([C@H](Cc2ccccc2)C[C@H](O)[C@H](Cc2ccccc2)NC(=O)[C@@H](NC(=O)OCc2ccccc2)[C@H](C)O)n1	8.85	7.96
CCC(=O)c1cnc([C@H](Cc2ccccc2)C[C@H](O)[C@H](Cc2ccccc2)NC(=O)OC(C)(C)C)s1	5.43	–
CCC(O)c1cnc([C@H](Cc2ccccc2)C[C@H](O)[C@H](Cc2ccccc2)NC(=O)OC(C)(C)C)s1 (some centres not stated)	6.14	–
CC(C)(C)OC(=O)N[C@@H](Cc1ccccc1)[C@@H](O)C[C@@H](Cc1ccccc1)c1nc(C(=O)C2CCCC2)c[nH]1	6.82	–
CNC(=O)c1c[nH]c([C@H](Cc2ccccc2)C[C@H](O)[C@H](Cc2ccccc2)NC(=O)OC(C)(C)C)n1	5.43	–
CC(=O)N[C@H](C(=O)N[C@@H](Cc1ccccc1)[C@@H](O)C[C@@H](Cc1ccccc1)c1ncc(C(C)C)[nH]1)C(C)C	9.00	7.40
CC(C)c1cnc([C@H](Cc2ccccc2)C[C@H](O)[C@H](Cc2ccccc2)NC(=O)[C@@H](NC(=O)OC(C)(C)C)C(C)C)[nH]1	6.52	–
CC(C)c1cnc([C@H](Cc2ccccc2)C[C@H](O)[C@H](Cc2ccccc2)NC(=O)[C@@H](NC(=O)OCc2ccccc2)C(C)C)[nH]1	9.22	7.00
CC(C)(C)OC(=O)N[C@@H](Cc1ccccc1)[C@@H](O)C[C@@H](Cc1ccccc1)c1ncc(C(=O)c2ccccc2)[nH]1	5.11	–
COC(=O)c1cnc([C@H](Cc2ccccc2)C[C@H](O)[C@H](Cc2ccccc2)NC(=O)OC(C)(C)C)[nH]1	5.74	–
CCCc1cnc([C@H](Cc2ccccc2)C[C@H](O)[C@H](Cc2ccccc2)NC(=O)OC(C)(C)C)s1 (stereo in doubt; form 2)	6.39	–
CCc1cnc([C@H](Cc2ccccc2)C[C@H](O)[C@H](Cc2ccccc2)NC(=O)OC(C)(C)C)s1	5.70	–
CC(C)OC(=O)N[C@H](C(=O)N[C@@H](Cc1ccccc1)[C@@H](O)C[C@@H](Cc1ccccc1)c1ncc(C(C)C)[nH]1)C(C)C	8.10	6.87
